# Results reported in ChEMBL document CHEMBL5244277, “A review upon medicinal perspective and designing rationale of DPP-4 inhibitors” (Bioorg Med Chem, 2021).
# pIC50, pKi: −log10 of the molar value.
# Tests used:
# [1] = molecular target: T1, Dipeptidyl peptidase 4 (Homo sapiens, UniProt P27487); test: Inhibition of human recombinant DPP-4 at 100 uM using Gly-Pro-Aminomethylcoumarin as substrate by Spectra max fluorometer analysis relative to control
# Target sequence in this assay (P27487 whole entry, looked up): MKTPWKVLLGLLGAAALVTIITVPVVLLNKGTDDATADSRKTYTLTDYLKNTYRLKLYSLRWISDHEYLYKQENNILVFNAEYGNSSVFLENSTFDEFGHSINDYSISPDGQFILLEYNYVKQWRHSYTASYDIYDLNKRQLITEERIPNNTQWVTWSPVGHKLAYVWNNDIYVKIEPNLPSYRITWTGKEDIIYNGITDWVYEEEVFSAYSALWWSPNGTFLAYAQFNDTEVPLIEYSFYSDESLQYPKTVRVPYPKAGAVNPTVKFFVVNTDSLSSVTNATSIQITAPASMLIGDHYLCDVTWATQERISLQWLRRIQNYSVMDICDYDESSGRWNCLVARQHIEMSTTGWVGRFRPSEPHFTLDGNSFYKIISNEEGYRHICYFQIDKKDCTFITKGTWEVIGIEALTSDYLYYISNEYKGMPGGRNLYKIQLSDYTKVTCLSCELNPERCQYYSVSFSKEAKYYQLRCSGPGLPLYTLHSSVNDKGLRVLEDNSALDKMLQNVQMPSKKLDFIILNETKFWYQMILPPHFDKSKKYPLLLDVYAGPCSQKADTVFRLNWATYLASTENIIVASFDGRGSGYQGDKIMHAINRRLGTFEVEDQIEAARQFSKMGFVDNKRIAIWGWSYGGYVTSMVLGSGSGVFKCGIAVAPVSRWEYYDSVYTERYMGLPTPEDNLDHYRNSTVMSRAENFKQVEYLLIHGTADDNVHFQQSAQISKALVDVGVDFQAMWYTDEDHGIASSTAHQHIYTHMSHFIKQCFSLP
# [2] = system: Mus musculus; test: Hypoglycemic activity in ICR mouse assessed as reduction in blood glucose level at 1 mg/kg; assay type: ADME, organism-based; parameters: scale not given: the % may be the effect or the level left; details: in vivo
# [3] = system: Mus musculus; test: Hypoglycemic activity in KKAy mouse assessed as reduction in blood glucose level at 10 mg/kg; assay type: ADME, organism-based; parameters: scale not given: the % may be the effect or the level left; details: in vivo
# [4] = Blood glucose AUC in ICR mouse at 15 mg/kg; details: in vivo
# [5] = Half life in ICR mouse at 15 mg/kg; assay type: ADME, organism-based; details: in vivo
# [6] = Oral bioavailability in ICR mouse at 15 mg/kg; assay type: ADME, organism-based; details: in vivo
# [7] = molecular target: T2, Voltage-gated inwardly rectifying potassium channel KCNH2 (Homo sapiens, UniProt Q12809); test: Inhibition of hERG channel by patch clamp assay; assay type: toxicity
# [8] = molecular target: T2, Voltage-gated inwardly rectifying potassium channel KCNH2; test: Inhibition of hERG by thallium flux assay; assay type: toxicity
# [9] = organism: Homo sapiens; test: Selectivity index, ratio of IC50 for DPP-4 (unknown origin) to IC50 for DPP-8 (unknown origin)
# [10] = Half life in mouse; assay type: ADME, organism-based; details: in vivo
# [11] = system: Rattus norvegicus; test: Antihyperglycemic activity in STZ-induced diabetic rat model assessed as reduction in blood glucose level at 100 mg/kg, po measured upto 24 hrs; assay type: functional; parameters: scale not given: the % may be the effect or the level left
# [12] = molecular target: T1, Dipeptidyl peptidase 4; test: Inhibition of DPP4 (unknown origin) using Gly-Pro-AMC as substrate incubated for 30 mins by spectroscopic analysis
# Target sequence in this assay (P27487 whole entry): as the sequence (P27487 whole entry, looked up) above
# [13] = molecular target: T1, Dipeptidyl peptidase 4; assay type: cell-based, Caco-2
# Target sequence in this assay (P27487 whole entry): as the sequence (P27487 whole entry, looked up) above
# [14] = molecular target: Dipeptidyl peptidase 8 (Homo sapiens, UniProt Q6V1X1); test: Inhibition of DPP-8 (unknown origin)
# [15] = molecular target: Dipeptidyl peptidase 9 (Homo sapiens, UniProt Q86TI2); test: Inhibition of DPP-9 (unknown origin)
# [16] = molecular target: T1, Dipeptidyl peptidase 4
# Target sequence in this assay (P27487 whole entry, looked up): as above
# [17] = molecular target: T1, Dipeptidyl peptidase 4; test: Inhibition of DPP-4 (unknown origin) at 100 uM relative to control
# Target sequence in this assay (P27487 whole entry, looked up): as above
# [18] = system: Mus musculus; test: Hypoglycemic activity in C57BL/6J mouse assessed as reduction in blood glucose level at 10 mg/kg, po measured at 20 to 80 mins by OGTT analysis; assay type: functional; parameters: scale not given: the % may be the effect or the level left; details: time 20-80 min
# [19] = molecular target: T1, Dipeptidyl peptidase 4; remark: listed apart in the source
# Target sequence in this assay (P27487 whole entry): as the sequence (P27487 whole entry, looked up) above
# [20] = system: Mus musculus; test: Antidiabetic activity in ICR mouse assessed as decrease in AUC of glucose at 3 mg/kg, po; assay type: functional; parameters: scale not given: the % may be the effect or the level left
# [21] = Bioavailability in rat; assay type: ADME, organism-based; details: in vivo
# [22] = system: Mus musculus; test: Hypoglycemic activity in ICR mouse assessed as reduction in blood glucose level at 3 mg/kg; assay type: ADME, organism-based; parameters: scale not given: the % may be the effect or the level left; details: in vivo
# [23] = system: Mus musculus; test: Hypoglycemic activity in ICR mouse assessed as reduction in blood glucose level at 10 mg/kg; assay type: ADME, organism-based; parameters: scale not given: the % may be the effect or the level left; details: in vivo
# [24] = system: Mus musculus; test: Hypoglycemic activity in ICR mouse assessed as reduction in blood glucose level at 30 mg/kg; assay type: ADME, organism-based; parameters: scale not given: the % may be the effect or the level left; details: in vivo
# [25] = system: Mus musculus; test: Hypoglycemic activity in KKAy mouse assessed as reduction in blood glucose level at 30 mg/kg; assay type: ADME, organism-based; parameters: scale not given: the % may be the effect or the level left; details: in vivo
# [26] = Half life in KKAy mouse at 10 to 30 mg/kg; assay type: ADME, organism-based; details: in vivo, dose 10-30 mg/kg
# [27] = Oral bioavailability in KKAy mouse at 10 to 30 mg/kg; assay type: ADME, organism-based; details: in vivo, dose 10-30 mg/kg
# [28] = system: Rattus norvegicus; test: Anti-hyperglycemic activity in STZ-induced diabetic rat model assessed as improvement in glucose tolerance level at 30 mg/kg, po measured on day 10; assay type: functional; details: time 10 day
# [29] = system: Rattus norvegicus; test: Anti-hyperglycemic activity in STZ-induced diabetic rat model assessed as improvement in glucose tolerance level at 30 mg/kg, po measured on day 15; assay type: functional
# [30] = molecular target: T1, Dipeptidyl peptidase 4; remark: listed apart in the source
# Target sequence in this assay (P27487 whole entry): as the sequence (P27487 whole entry, looked up) above
# [31] = system: Mus musculus; test: Antidiabetic activity in C57BL/6J mouse assessed as decrease in AUC of glucose at 3 mg/kg, po; assay type: functional; parameters: scale not given: the % may be the effect or the level left
# T2 sequence (Q12809 whole entry): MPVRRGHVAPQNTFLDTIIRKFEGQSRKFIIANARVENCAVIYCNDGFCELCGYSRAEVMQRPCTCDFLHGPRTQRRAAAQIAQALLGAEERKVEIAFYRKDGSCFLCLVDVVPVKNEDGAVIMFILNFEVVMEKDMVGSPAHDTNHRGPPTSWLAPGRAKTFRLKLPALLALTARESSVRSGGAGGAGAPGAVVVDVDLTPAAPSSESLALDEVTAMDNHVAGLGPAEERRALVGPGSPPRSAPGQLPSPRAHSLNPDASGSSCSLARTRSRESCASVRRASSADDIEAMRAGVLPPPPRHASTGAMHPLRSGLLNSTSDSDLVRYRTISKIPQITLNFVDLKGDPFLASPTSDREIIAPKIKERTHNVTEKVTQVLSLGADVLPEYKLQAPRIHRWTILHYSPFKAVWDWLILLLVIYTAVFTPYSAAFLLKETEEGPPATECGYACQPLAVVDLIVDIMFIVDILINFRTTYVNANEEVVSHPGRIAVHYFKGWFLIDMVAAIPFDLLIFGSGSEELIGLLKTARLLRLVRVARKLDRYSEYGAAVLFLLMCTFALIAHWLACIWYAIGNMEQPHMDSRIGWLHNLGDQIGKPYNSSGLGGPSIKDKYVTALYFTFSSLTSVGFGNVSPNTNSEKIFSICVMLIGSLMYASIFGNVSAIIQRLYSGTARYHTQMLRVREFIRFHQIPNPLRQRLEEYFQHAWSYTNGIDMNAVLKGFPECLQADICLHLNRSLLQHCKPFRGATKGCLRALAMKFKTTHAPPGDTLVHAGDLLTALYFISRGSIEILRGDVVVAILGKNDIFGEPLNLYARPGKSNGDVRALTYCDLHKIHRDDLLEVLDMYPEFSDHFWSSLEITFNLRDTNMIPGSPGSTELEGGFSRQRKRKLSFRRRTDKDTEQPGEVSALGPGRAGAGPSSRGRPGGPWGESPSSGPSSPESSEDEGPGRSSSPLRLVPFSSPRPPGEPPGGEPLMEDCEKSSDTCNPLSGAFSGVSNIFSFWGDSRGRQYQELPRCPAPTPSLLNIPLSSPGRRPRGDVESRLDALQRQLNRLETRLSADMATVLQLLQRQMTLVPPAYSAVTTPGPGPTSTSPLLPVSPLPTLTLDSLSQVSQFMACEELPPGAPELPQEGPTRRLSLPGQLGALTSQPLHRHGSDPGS
# Chain of Dipeptidyl peptidase 8 (Q6V1X1 whole entry): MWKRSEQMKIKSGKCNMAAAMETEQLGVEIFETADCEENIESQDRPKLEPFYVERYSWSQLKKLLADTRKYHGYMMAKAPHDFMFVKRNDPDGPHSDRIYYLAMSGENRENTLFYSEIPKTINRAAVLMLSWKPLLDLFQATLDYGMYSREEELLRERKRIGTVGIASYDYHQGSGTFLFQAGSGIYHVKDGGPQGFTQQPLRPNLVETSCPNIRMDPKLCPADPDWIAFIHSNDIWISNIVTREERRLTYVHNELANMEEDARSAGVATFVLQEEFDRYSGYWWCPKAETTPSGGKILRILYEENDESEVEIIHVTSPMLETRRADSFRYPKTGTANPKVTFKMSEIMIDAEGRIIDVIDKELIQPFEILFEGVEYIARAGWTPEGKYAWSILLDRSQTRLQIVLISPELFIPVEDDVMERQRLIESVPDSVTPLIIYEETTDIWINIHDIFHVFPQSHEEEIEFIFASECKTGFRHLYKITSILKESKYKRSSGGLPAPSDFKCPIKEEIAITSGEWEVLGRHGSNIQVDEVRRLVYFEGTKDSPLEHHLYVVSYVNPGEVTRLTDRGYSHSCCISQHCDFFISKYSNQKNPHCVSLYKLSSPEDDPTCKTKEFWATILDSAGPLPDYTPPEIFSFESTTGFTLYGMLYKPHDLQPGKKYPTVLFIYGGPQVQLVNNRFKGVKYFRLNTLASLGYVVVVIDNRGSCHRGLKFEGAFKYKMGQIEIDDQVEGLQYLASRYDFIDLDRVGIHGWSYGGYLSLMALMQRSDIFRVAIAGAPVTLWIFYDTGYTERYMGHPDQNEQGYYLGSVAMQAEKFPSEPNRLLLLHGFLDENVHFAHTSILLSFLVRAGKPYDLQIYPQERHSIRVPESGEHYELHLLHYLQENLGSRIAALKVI
# Chain of Dipeptidyl peptidase 9 (Q86TI2 whole entry): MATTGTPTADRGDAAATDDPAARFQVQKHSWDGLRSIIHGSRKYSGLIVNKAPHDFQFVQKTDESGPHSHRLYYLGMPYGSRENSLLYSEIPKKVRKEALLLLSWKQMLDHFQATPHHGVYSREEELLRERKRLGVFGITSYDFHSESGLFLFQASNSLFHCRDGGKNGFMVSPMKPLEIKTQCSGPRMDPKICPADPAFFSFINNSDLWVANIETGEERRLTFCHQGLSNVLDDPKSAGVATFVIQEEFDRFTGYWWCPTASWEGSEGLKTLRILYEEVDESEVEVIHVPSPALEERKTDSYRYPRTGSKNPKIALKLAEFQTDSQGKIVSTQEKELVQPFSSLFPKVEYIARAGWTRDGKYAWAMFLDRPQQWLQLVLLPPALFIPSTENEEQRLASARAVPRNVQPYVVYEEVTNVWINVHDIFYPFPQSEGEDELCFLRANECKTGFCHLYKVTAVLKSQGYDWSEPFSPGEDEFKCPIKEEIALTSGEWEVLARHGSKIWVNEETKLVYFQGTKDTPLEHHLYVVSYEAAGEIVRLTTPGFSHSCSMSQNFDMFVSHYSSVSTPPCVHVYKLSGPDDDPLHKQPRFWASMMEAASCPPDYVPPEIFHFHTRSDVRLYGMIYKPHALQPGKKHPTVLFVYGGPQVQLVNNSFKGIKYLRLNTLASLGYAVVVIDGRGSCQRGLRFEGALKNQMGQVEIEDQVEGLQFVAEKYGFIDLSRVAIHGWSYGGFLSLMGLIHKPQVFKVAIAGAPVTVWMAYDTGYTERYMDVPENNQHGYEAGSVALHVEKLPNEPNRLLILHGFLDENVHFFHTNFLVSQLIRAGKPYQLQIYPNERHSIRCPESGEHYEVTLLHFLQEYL
smiles,measurement,setting,value
Cc1ccc(NC(=O)CNc2cc3ccc4ccccc4c3oc2=O)cc1,inhibition,[1],26.7%
N#C[C@@H]1CCCN1C(=O)CNC12CC3CC(CC(O)(C3)C1)C2 [VILDAGLIPTIN],Activity,[2],24.1%
same,Activity,[3],30%
same,glucose AUC,[4],904 mmol/L/min
N#C[C@@H]1C[C@H](F)CN1C(=O)[C@@H](N)Cc1cc(Cl)c(Cl)cc1Cl,half-life,[5],2.03 h
same,bioavailability,[6],53.2%
same,pIC50,[7],< 4.40
same,pIC50,[8],4.01
same,glucose AUC,[4],795 mmol/L/min
N#C[C@@H]1CCCN1C(=O)[C@@H](N)CCC(=O)N1CCn2nc(C(F)(F)F)nc2C1.O=C(O)C(F)(F)F,Ratio IC50,[9],> 1000
same,half-life,[10],< 24 h
O=C(CN1CCN(c2ccccn2)CC1)N1CCSC1,Activity,[11],18.4%
O=C([C@H]1CC[C@@H](n2cc(-c3ccccc3O)nn2)C1)N1CCC(F)(F)C1,pIC50,[12],6.21
N[C@@H](CC(=O)N1CCC[C@H]1CNC(=O)c1cc(S(=O)(=O)N2CCCCC2)c(F)cc1F)[C@H]1CCc2cc(F)c(F)cc21,pIC50,[13],9.06
N#C[C@@H]1[C@@H]2CCC[C@@H]2CN1C(=O)[C@@H](N)Cc1cc(F)c(F)cc1F,half-life,[5],2.74 h
same,bioavailability,[6],22.8%
same,pIC50,[7],< 4.40
same,IC5,[8]; human,55.3 µM
same,glucose AUC,[4],847 mmol/L/min
Cc1nc2cc(-c3ccccc3)nn2c(-c2ccc(Cl)cc2Cl)c1CO,pKi,[14],< 4.52
same,pKi,[15],< 4.52
NNC1=NC(N2C(=O)CSC2=O)=NC(NN)N1 (stereo not drawn),IC5,[16],6.25 µM
O=C([C@H]1CC[C@@H](n2cc(-c3ccc(-c4ccccc4)cc3)nn2)C1)N1CCC(F)(F)C1,pIC50,[12],6.18
COc1ccc(CCNC(=S)N/C=C2\C(=O)Oc3ccccc3C2=O)cc1OC,inhibition,[17],> 50%
CS(=O)(=O)c1cccc(C(=O)NC[C@@H]2CCCN2C(=O)C[C@H](N)[C@H]2CCc3cc(F)c(F)cc32)c1,pIC50,[13],8.97
same,Activity,[18],40%
N#C[C@@H]1CCCN1C(=O)[C@@H](N)CCC(=O)N1CCn2c(nnc2C(F)(F)F)C1.O=C(O)C(F)(F)F,Ratio IC50,[9],> 1000
same,half-life,[10],< 24 h
CC#CCn1c(N2CCC[C@@H](N)C2)cc(=O)n(Cc2cn(CCC(=O)O)nn2)c1=O,pIC50,[19],7.90
same,Activity,[20],21.2%
Cl.N[C@@H](CC(=O)N1CCn2c(nnc2C(F)(F)F)[C@H]1c1ccc(F)cc1)Cc1cc(F)c(F)cc1F,bioavailability,[21],76%
same,IC5,[16],0.00018 µM
N[C@@H](CC(=O)N1CCC[C@H]1CNC(=O)c1ccc(F)c(S(N)(=O)=O)c1)[C@H]1CCc2cc(F)c(F)cc21,pIC50,[13],9.06
N#C[C@@H]1C[C@H](F)CN1C(=O)[C@@H](N)Cc1ccccc1,Activity,[2],18.75%
same,Activity,[22],27.36%
same,Activity,[23],29.13%
same,Activity,[24],27.57%
same,Activity,[3],19.2%
same,Activity,[25],26.4%
same,half-life,[26],5.4 h
same,bioavailability,[27],21.8%
COC(=O)C1=C(C)N=C2CC(C)C3(Oc4c(Cl)c(OC)cc(OC)c4C3=O)C(O)=C2C1c1cc2cccc3c2n(c1=O)CCC3 (stereo not drawn),inhibition,[17],> 50%
O=C(CN1CCN(c2cccc(Cl)c2)CC1)N1CCCCC1,Activity,[11],24.6%
same,Activity,[28],11.8%
same,Activity,[29],19.4%
Cc1c(-c2cc(S(=O)(=O)c3ccccc3)n[nH]2)c(=O)n(C)n1C,pIC50,[30],> 7.82
COC(=O)c1ccc2cc(OCC(=O)Nc3ccc(C)cc3)c(=O)oc2c1,inhibition,[1],1.3%
CO/N=C1\CN(c2nc3c(cc2F)c(=O)c(C(=O)O)cn3C2CC2)CC1CN (stereo not drawn) [GEMIFLOXACIN],pIC50,[30],5.57
CC#CCn1c(N2CCC[C@@H](N)C2)cc(=O)n(Cc2cn(-c3ccccc3)nn2)c1=O,pIC50,[19],6.73
COC(=O)c1cn([C@@H]2CC[C@H](C(=O)N3CCC(F)(F)C3)C2)nn1,pIC50,[12],6.14
CCOC(=O)c1ccc2cc(OCC(=O)N3CCCCC3)c(=O)oc2c1,inhibition,[1],1.3%
NCC1CN(CCCc2ccc3c(c2)OCO3)C(=O)CC1c1cc(F)ccc1F (stereo not drawn),Activity,[31],38.9%
N#Cc1ccc(C2=NNc3nc(Br)nn3C2)cc1,inhibition,[17],48.3%
